Data: patent US7759313B2, “Induction method for cell differentiation” (Obschetstvo S Ogranichennoi Otvetstvennostiyu …, priority 2002, dated 2010)
Like-named read-outs stand apart in the source and are kept apart here.

Experiments:
[1] = Peripheral blood leukocytes formula under Cyclophosphamide; format: in vivo, mice; conditions: day 3 post CPH
Source text: (§1) Two groups of mice are used.

[2] = format: in vivo, mice
Source text: as §1

[3] = Total leukocyte number in peripheral blood under Cyclophosphamide

SMILES: O=P1(N(CCCl)CCCl)NCCCO1 (centres unmarked) [CPH, Cyclophosphamide]
- Myelocytes ([1]; CPH 200 mg/kg (Dicarbamine group: 0.5 mg/kg 5 days prior and 5 days after)): 0%
- Monocytes [1]: 4.649%
- Myelocytes [1]: 0 in mm^3
- Cellularity of bone marrow (number of cells) ([2]; CPH 200 mg/kg (Dicarbamine group: 0.5 mg/kg 5 days prior and 5 days after), day 3): 8.2 ± 1.65 millions
- Cellularity of bone marrow (number of cells) ([2]; day 5 after CPH): 13.05 ± 2.75 millions
- Cellularity of bone marrow (number of cells) ([2]; day 7 after CPH): 25.22 ± 2.75 millions
- Cellularity of bone marrow (number of cells) ([2]; day 10 after CPH): 27.9 ± 2.75 millions
- Cellularity of bone marrow (number of cells) ([2]; day 13 after CPH): 30.15 ± 6.6 millions
- Cellularity of bone marrow (number of cells) ([2]; day 17 after CPH): 25.0 ± 3.16 millions
- Cellularity of bone marrow (number of cells) ([2]; day 21 after CPH): 26.55 ± 4.53 millions
- Total leukocyte number ([3]; CPH 200 mg/kg, day 5): 4.38 ± 0.77 thousand in mm^3
- Total leukocyte number ([3]; CPH 200 mg/kg, day 7): 10.50 ± 3.02 thousand in mm^3
- Total leukocyte number ([3]; CPH 200 mg/kg, day 10): 6.44 ± 0.60 thousand in mm^3
- Total leukocyte number ([3]; CPH 200 mg/kg, day 13): 12.20 ± 3.02 thousand in mm^3
- Total leukocyte number ([3]; CPH 200 mg/kg, day 17): 12.20 ± 1.80 thousand in mm^3
- Total leukocyte number ([3]; CPH 200 mg/kg, day 21): 11.86 ± 1.32 thousand in mm^3
- Total leukocyte number ([3]; single CPH 200 mg/kg (Dicarbamine group: 0.5 mg/kg daily 5 days before and 5 days after), day 3 post CPH): 1.06 ± 0.44 thousand in mm^3
